Values joined by “and” are separate entries in the source; they are usually repeats but may differ in a detail not shown here. Equal values may be shown once. Read-outs that look alike come from different tables or passages of the source.
Tests used:
[1] = molecular target: T1, Radiation Leukemia Virus reverse transcriptase (Radiation murine leukemia virus, UniProt P11227); assay: Reverse transcriptase assay of Radiation Leukemia Virus from B10.T(6R) cell supernatants (Example 3); format: biochemical; conditions: for Average CPM / CPM / Average percent inhibition: Table V; for CPM: replicate
T1 construct: the reverse transcriptase of Radiation Leukemia Virus; endogenous in cells
Experimental: Supernatants (10 ml/tube) from B10.T(6R) cells (Meruelo et al. J. Exp. Med. 147: 470-487, 1978) chronically infected with Radiation Leukemia Virus (RadLV) were obtained by centrifugation of cells in culture at 4° C., 3500 rpm for 15 minutes. The top 2/3 of the supernatant were removed and aliquots were incubated for 30 minutes on ice with the indicated amounts of hypericin or protohypericin. […] Thereafter, supernatants were centrifuged at 100,000×g using a TI70 rotor (Beckman Instruments) for 1 hour at 4° C. The pellet was […] and analyzed for reverse transcriptase activity as follows.
The reverse transcriptase assay was performed in a volume of 100 microliters containing the following components:
The reverse transcriptase assay provides a measure of the antiviral activity of the compounds tested by reference to the observed decrease in activity of this enzyme.
In Table V, "CPM" is "counts per minute", "Average" is the numerical average of CPM values within each group of animals.

Friend Leukemia Virus [2] = assay: In vivo inhibition of Friend Leukemia Virus splenomegaly, intravenous 1-2 hours post infection (Example 10); parameters: species or system mice; conditions: Mus musculus, read-out: EC50 for FV-induced splenomegaly
Experimental: (§1) (3) In vivo inhibition of Friend Leukemia Virus Splenomegaly performed as described in Example 1 above except that the compounds were administered intravenously 1-2 hours post infection.
The results presented above in Table IX are presented as EC50 concentrations. These are the effective concentrations which inhibit 50% of the viruses in micromolar concentrations.

retroviruses (virions) = assay: Direct inactivation of retroviruses (virions) in vitro (Example 10); format: biochemical, Radiation Leukemia Virus; conditions: Table IX
Method in brief: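 RadLV-containing supernatants from chronically infected B10.T(6R) cells incubated 30 min on ice with hypericin or protohypericin. Virions then pelleted at 100,000×g for 1 h at 4° C and assayed for reverse transcriptase activity. EC50 is the micromolar concentration inhibiting 50% of virus.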

[3] = Stability to light and pH; format: physicochemical; conditions: for stability to light: irradiation / exposure to light
Friend Leukemia Virus [4] = assay: FV-induced splenomegaly, PAC compounds in combination with AZT (Example 1(b)); format: in vivo, BALB/c mice; conditions: 5X AZT 20 micrograms per mouse
Experimental: The effects of compositions according to the present invention on the increase in spleen size (splenomegaly) of BALB/c mice (Jackson Labs, Bar Harbor, ME) was examined. In these experiments, the virus (10^6 focus forming units--FFU) was inoculated intravenously and 100 micrograms of the compounds indicated in Table II were administered to the mice intraperitoneally 24 hours later. Each compound was administered once to two mice. The animals were sacrificed ten days later and their spleens weighed.
As used in Table II (and subsequent Tables of this Example l(a) and (b), "average percent inhibition" is calculated as follows: [formula] wherein "ASWNC" designates "average spleen weight of negative control"; "ASWE" designates "average spleen weight of experimental (treated) subject"; and "ASWPC" designates "average spleen weight of positive control". Average spleen weight is the numerical average of spleen weights of each experimental group (in Table II each such group includes two members).
The compounds of the present invention (100 micrograms per mouse) were also tested in combination with AZT (20 micrograms per mouse, twice a day) using otherwise the same methods as in Example 1(a) above. As representatives, compound #9 above (3-bromophenanthro (3,4-C), phenanthrene) and compound #10 (diindeno (1, 2, 3-CD/1', 2', 3'-IM) Perylene) were chosen. […] The compounds were administered i.p. either once or five times (once per day) alone or together with AZT (20 micrograms of AZT per mouse twice a day for five days?). Thus, in experiments where AZT was administered five times, a total of […] of AZT was received by each mouse (with a total of 500 micrograms of the PAC compound).

HIV = conditions: human, in vivo; cited from earlier work
Friend Virus = assay: Friend Virus-induced splenomegaly, WIS compounds (Example 8); format: in vivo, mice; parameters: Actual Spleen Weight / Average Spleen Weight: unit not given here; conditions: Table VII; for Actual Spleen Weight: single animal
Method in brief: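 BALB/c mice were inoculated i.v. with Friend virus (10^6 FFU), then given compound i.p. once 24 h later. Spleens were weighed ten days later, and average percent inhibition of splenomegaly was calculated from spleen weights relative to negative and positive controls. WIS compounds were tested at different concentrations, three mice per group.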

retroviruses = assay: Comparison over two in vitro and one in vivo biological assays (Example 10); conditions: Example 10, structural comparison
Experimental: In order to investigate the structural features of hypericin which are essential for antiretroviral activity, numerous analogs and precursors of hypericin were examined for activity in two in vitro and one in vivo biological assay.
(1) Direct inactivation of retroviruses in vitro, performed as in Example 3 above;
as §1

[5] = molecular target: T1, Radiation Leukemia Virus reverse transcriptase; assay: Radiation Leukemia Virus reverse transcriptase assay, supernatants from infected AQR cells (Examples 4 and 9); format: biochemical; conditions: Table VIII; for CPM: replicate; for inhibition at 50 ng / inhibition at 0.0001 mg / inhibition at 0.0005 mg / inhibition at 0.001 mg / inhibition at 0.002 mg / inhibition at 0.005 mg / inhibition at 0.01 mg: 0.5 h; for inhibition at 0.01 mg: read-out: Average % Inhibition
Method in brief: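 Supernatants from AQR cells chronically infected with RadLV were incubated 30 min on ice with the test compound (hypericin, protohypericin or HHA). Virus was pelleted at 100,000×g for 1 h at 4 °C, and the pellet was assayed for reverse transcriptase activity.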

Cc1cc(O)c2c(=O)c3c(O)cc(O)c4c5c(O)cc(O)c6c(=O)c7c(O)cc(C)cc7c(c65)c(c2c1)c34 [protohypericin, Protohypericin]
Average CPM ([1]; 0.05 micrograms): 309,103 CPM
CPM ([1]; 0.05 micrograms): 310,952 CPM and 307,254 CPM
Average CPM ([1]; 0.1 micrograms): 261,083 CPM
CPM ([1]; 0.1 micrograms): 216,824 CPM and 305,342 CPM
Average CPM ([1]; 0.5 micrograms): 257,879 CPM
CPM ([1]; 0.5 micrograms): 264,710 CPM and 251,048 CPM
Average CPM ([1]; 1 microgram): 227,614 CPM
CPM ([1]; 1 microgram): 192,184 CPM and 263,044 CPM
Average CPM ([1]; 5 micrograms): 12,633 CPM
Average percent inhibition ([1]; 5 micrograms): 94.0%
CPM ([1]; 5 micrograms): 12,358 CPM and 12,908 CPM
Average CPM ([1]; 10 micrograms): 185,539 CPM
Average percent inhibition ([1]; 10 micrograms): 11.3%
CPM ([1]; 10 micrograms): 202,656 CPM and 168,422 CPM
Average CPM ([1]; 50 micrograms): 71,641 CPM
Average percent inhibition ([1]; 50 micrograms): 65.8%
CPM ([1]; 50 micrograms): 75,816 CPM and 67,466 CPM
Average CPM ([1]; 100 micrograms): 10,281 CPM
Average percent inhibition ([1]; 100 micrograms): 95.1%
CPM ([1]; 100 micrograms): 8,818 CPM and 11,744 CPM
inhibition of RadLV reverse transcriptase activity ([1]; Example 3): significantly inhibited the reverse transcriptase activity of RadLV
concentration required relative to hypericin for the same degree of RT inhibition ([1]; RadLV, vs hypericin): 10 to 100 fold
EC50 (Friend Leukemia Virus [2]): 98 µM
EC50 (retroviruses (virions)): 7.9 µM
stability to light [3]: converts to hypericin upon exposure to light

Cc1cn([C@H]2C[C@H](N=[N+]=[N-])[C@@H](CO)O2)c(=O)[nH]c1=O [AZT, 3'-azido-3'-dideoxythymidine, reference compound]
% Inhibition (Friend Leukemia Virus [4]): 39%
Average Spleen Weight (Friend Leukemia Virus [4]): 1.3895
Spleen weight (Friend Leukemia Virus [4]; single animal): 1.3744 and 1.4046
clinical toxicity of AZT (HIV): dose-dependent suppression of bone marrow, resulting in anemia and leukopenia

Cc1cc(O)c2cc3c(O)cc(O)c4c5c(O)cc(O)c6cc7c(O)cc(C)c8c1c2c(c34)c(c78)c65 [WIS-5, desoxyhypericin]
Average % Inhibition (Friend Virus; 1 microgram): 5.9%
Average Spleen Weight (Friend Virus; 1 microgram): 0.9197
Actual Spleen Weight (Friend Virus; 1 microgram): 0.9062 and 0.9528 and 0.9001
Average % Inhibition (Friend Virus; 10 micrograms): 6.5%
Average Spleen Weight (Friend Virus; 10 micrograms): 0.9147
Actual Spleen Weight (Friend Virus; 10 micrograms): 0.9126 and 0.8898 and 0.9417
Average % Inhibition (Friend Virus; 50 micrograms): 19.3%
Average Spleen Weight (Friend Virus; 50 micrograms): 0.8134
Actual Spleen Weight (Friend Virus; 50 micrograms): 0.7817 and 0.8389 and 0.8196
Average % Inhibition (Friend Virus; 150 micrograms): 35.2%
Average Spleen Weight (Friend Virus; 150 micrograms): 0.6879
Actual Spleen Weight (Friend Virus; 150 micrograms): 0.6919 and 0.6790 and 0.6927
EC50 (Friend Leukemia Virus [2]; i.v. 1-2 hours post infection, Table IX): > 316 µM
loss of antiviral activity relative to parent (retroviruses): significant loss of in vivo reverse transcriptase inhibitory activity
EC50 (retroviruses (virions)): > 21 µM
stability vs pH ([3]; neutral or acetic pH): decomposses readily in neutral or acetic pH
Average CPM ([5]; 0.05 micrograms): 193,017 CPM
CPM ([5]; 0.05 micrograms): 183,654 CPM and 202,380 CPM
Average CPM ([5]; 0.1 micrograms): 171,635 CPM
CPM ([5]; 0.1 micrograms): 172,984 CPM and 170,286 CPM
Average CPM ([5]; 0.5 micrograms): 249,351 CPM
CPM ([5]; 0.5 micrograms): 240,372 CPM and 258,330 CPM
Average CPM ([5]; 1 microgram): 251,168 CPM
CPM ([5]; 1 microgram): 238,782 CPM and 263,554 CPM
Average CPM ([5]; 2 micrograms): 205,469 CPM
CPM ([5]; 2 micrograms): 216,764 CPM and 194,174 CPM
Average CPM ([5]; 5 micrograms): 236,878 CPM
CPM ([5]; 5 micrograms): 220,588 CPM and 253,168 CPM
Average CPM ([5]; 10 micrograms): 177,364 CPM
CPM ([5]; 10 micrograms): 168,008 CPM and 186,720 CPM
inhibition at 50 ng ([5]; 0.05 micrograms): 76.4%
inhibition at 0.0001 mg ([5]; 0.1 micrograms): 79%
inhibition at 0.0005 mg ([5]; 0.5 micrograms): 69.5%
inhibition at 0.001 mg ([5]; 1 microgram): 69.2%
inhibition at 0.002 mg ([5]; 2 micrograms): 74.8%
inhibition at 0.005 mg ([5]; 5 micrograms): 71%
inhibition at 0.01 mg ([5]; 10 micrograms): 78.3%

O=c1c2ccccc2c2c3c1c(O)cc(O)c3c1c(O)cc(O)c3c(=O)c4ccccc4c2c31 [WIS-2, Tetrahydroxy-dibenzoperylene-dione]
Average % Inhibition (Friend Virus; 1 microgram): 53.9%
Average Spleen Weight (Friend Virus; 1 microgram): 0.7015
Actual Spleen Weight (Friend Virus; 1 microgram): 0.6615 and 0.7519 and 0.6912
Average % Inhibition (Friend Virus; 10 micrograms): 62.7%
Average Spleen Weight (Friend Virus; 10 micrograms): 0.4701
Actual Spleen Weight (Friend Virus; 10 micrograms): 0.4263 and 0.4868 and 0.4972
Average % Inhibition (Friend Virus; 50 micrograms): 64.0%
Average Spleen Weight (Friend Virus; 50 micrograms): 0.4603
Actual Spleen Weight (Friend Virus; 50 micrograms): 0.4818 and 0.4925 and 0.4066
Average % Inhibition (Friend Virus; 150 micrograms): 66.3%
Average Spleen Weight (Friend Virus; 150 micrograms): 0.4416
Actual Spleen Weight (Friend Virus; 150 micrograms): 0.4075 and 0.4656 and 0.4517
stability to light [3]: did not change upon irradiation
inhibition at 50 ng ([5]; 0.05 micrograms): 41.6%
inhibition at 0.0001 mg ([5]; 0.1 micrograms): 70.8%
inhibition at 0.0005 mg ([5]; 0.5 micrograms): 98.1%
inhibition at 0.001 mg ([5]; 1 microgram): 98.7%
inhibition at 0.002 mg ([5]; 2 micrograms): 99.5%
inhibition at 0.005 mg ([5]; 5 micrograms): 99.5%
inhibition at 0.01 mg ([5]; 10 micrograms): 99.5%

Source: patent publication US6150414A, “Compositions and methods for treating viral infections” (priority 1992, dated 2000)
